Reference: patent US20060286670A1, “Transplant acceptance inducing cells of monocytic origin and their preparation and use” (BLASTICON BIOTECHNOLOGISCHE FORSCHUNG GMBH, priority 2002, published 2006)

Tested on: PHA-stimulated lymphocytes
Assay: Mixed lymphocyte culture of PHA-stimulated lymphocytes and TAIC, 3[H]-thymidine incorporation
Assay type: cell-based, human
Conditions: 2 μmol 1-MT
Protocol: In order to clarify, whether the inhibitor of the enzyme indolamine-2,3-dioxygenase (IDO) 1-methyltryptophane (1-MT) influences the suppressor function of the TAIC generated in the “Mo” and “Mo+Ly” set ups (see Example 11), a variety of mixed lymphocyte cultures (MLC) with PHA (phytohaemagglutinine) stimulated T-cells in the presence and in the absence of 1-MT were established.
In these mixed lymphocyte cultures 50.000 lymphocytes with 2 μg […] were transferred into the wells of a 96-well-plate, followed by a proliferation period over 144 hours (indicated as “PhaLy”). Lymphocytes only cultivated in medium without addition of PHA were run as a further control (indicated as “Ly”).
In order to determine the proliferation of PHA-stimulated lymphocytes in the different co-cultures, the following 4 set ups were run and examined:
In this arrangement, the amount of the radio activity determined is a measure for the amount of labeled thymidine incorporated into the DNA, and therefore a measure for the proliferation rate of the lymphocytes. The values reported in FIG. 8 correspond to mean values from triple determinations of 3 experiments each with indication of the standard deviation.

Cn1cc(C[C@H](N)C(=O)O)c2ccccc21 [1-MT, 1-methyltryptophane]
influence on the suppressor function of the TAIC: increases the suppressor function of the TAIC synergistically
